Results published in ChEMBL document CHEMBL5712891, “Inhibition of BET bromodomain-dependent XIAP and FLIP expression sensitizes KRAS-mutated NSCLC to pro-apoptotic agents” (Cell Death Dis, 2016).
The source made the active and inactive calls. No cut-off for these calls is given here.

Key:
DV-90 [1] = assay: Induction of apoptosis in human DV-90 cells assessed as necrotic cells at 2.5 uM for 24 hrs by annexin V-PI staining based flow cytometric analysis (reference value: 8.4%); assay type: functional
A549 [2] = assay: Induction of apoptosis in human A549 cells assessed as early apoptotic cells at 2.5 uM for 24 hrs by annexin V-PI staining based flow cytometric analysis (reference value: 0.2%); assay type: functional
A549 [3] = assay: Induction of apoptosis in human A549 cells assessed as early apoptotic cells at 0.5 uM for 24 hrs by annexin V-PI staining based flow cytometric analysis (reference value: 0.2%); assay type: functional
NCI-H460 [4] = assay: Induction of apoptosis in human NCI-H460 cells assessed as late apoptotic cells at 2.5 uM for 24 hrs by annexin V-PI staining based flow cytometric analysis (reference value: 3.7%); assay type: functional
DV-90 [5] = assay: Induction of cell cycle arrest in human DV-90 cells assessed as accumulation of cells at G0/G1 phase at 1 uM for 24 hrs by Click-iT EdU Alexa Fluor 647 flow cytometric assay kit analysis (reference value: 45%); assay type: functional
DV-90 [6] = assay: Induction of cell cycle arrest in human DV-90 cells assessed as accumulation of cells at S phase at 0.5 uM for 24 hrs by Click-iT EdU Alexa Fluor 647 flow cytometric assay kit analysis (reference value: 30%); assay type: functional
DV-90 [7] = assay: Induction of cell cycle arrest in human DV-90 cells assessed as accumulation of cells at G0/G1 phase at 0.25 uM for 24 hrs by Click-iT EdU Alexa Fluor 647 flow cytometric assay kit analysis (reference value: 45%); assay type: functional
NCI-H1373 [8] = assay: Induction of cell cycle arrest in human NCI-H1373 cells assessed as accumulation of cells at G0/G1 phase at 0.25 uM for 24 hrs by Click-iT EdU Alexa Fluor 647 flow cytometric assay kit analysis (reference value: 48%); assay type: functional
NCI-H1373 [9] = assay: Induction of cell cycle arrest in human NCI-H1373 cells assessed as accumulation of cells at G0/G1 phase at 0.5 uM for 24 hrs by Click-iT EdU Alexa Fluor 647 flow cytometric assay kit analysis (reference value: 45%); assay type: functional
NCI-H1792 = assay: Downregulation of c-MYC mRNA expression level in human NCI-H1792 cells at 0.1 to 1 uM for 24 hrs by qRT-PCR analysis; assay type: functional, cell-based; settings: dose 0.1-1 µM
SK-LU-1 = assay: Downregulation of FLIP mRNA expression level in human SK-LU-1 cells at 0.1 to 1 uM for 24 hrs by qRT-PCR analysis; assay type: functional, cell-based; settings: dose 0.1-1 µM
NCI-H441 = assay: Downregulation of XIAP protein expression level in human NCI-H441 cells at 1 uM for 24 hrs by […] analysis; assay type: functional, cell-based
A549 [10] = assay: Induction of cell cycle arrest in human A549 cells assessed as accumulation of cells at G2/M phase at 0.25 uM for 24 hrs by Click-iT EdU Alexa Fluor 647 flow cytometric assay kit analysis (reference value: 3%); assay type: functional
A549 [11] = assay: Antitumor activity against human A549 cells assessed as test to control tumor ratio at 50 mg/kg, ip for 28 days relative to control; assay type: functional; settings: time 28 day
NCI-H1373 [12] = assay: Induction of apoptosis in human NCI-H1373 cells assessed as early apoptotic cells at 2.5 uM for 24 hrs by annexin V-PI staining based flow cytometric analysis (reference value: 0.6%); assay type: functional
NCI-H1373 [13] = assay: Induction of TRAIL dependent apoptosis in human NCI-H1373 cells assessed as early apoptotic cells at 1 uM by annexin V-PI staining based flow cytometric analysis (reference value: 0.5%); assay type: functional
NCI-H460 [14] = assay: Induction of apoptosis in human NCI-H460 cells assessed as viable cells at 2.5 uM for 24 hrs by annexin V-PI staining based flow cytometric analysis (reference value: 94%); assay type: functional; settings: read-out: Activity
[15] = Toxicity in SCID mouse xenografted with human A549 cells assessed as body weight loss administered at 50 mg/kg, ip for 28 days relative to control; assay type: organism-based; settings: in vivo, 672 h, time 28 day
NCI-H1373 [16] = assay: Antiproliferative activity against human NCI-H1373 cells at 500 to 2500 nM in presence of TNF by cell titre glo assay; assay type: functional, cell-based; settings: dose 500-2500 nM
A549 [17] = assay: Induction of apoptosis in human A549 cells assessed as necrotic cells at 1 uM by annexin V-PI based flow cytometric analysis (reference value: 1.6%); assay type: functional
DV-90 [18] = assay: Induction of apoptosis in human DV-90 cells assessed as early apoptotic cells at 2.5 uM for 24 hrs by annexin V-PI staining based flow cytometric analysis (reference value: 1.7%); assay type: functional
NCI-H1373 [19] = assay: Downregulation of FLIP mRNA expression level in human NCI-H1373 cells at 0.1 to 1 uM for 24 hrs by qRT-PCR analysis; assay type: functional, cell-based; settings: dose 0.1-1 µM
DV-90 [20] = assay: Induction of apoptosis in human DV-90 cells assessed as late apoptotic cells at 2.5 uM for 24 hrs by annexin V-PI staining based flow cytometric analysis (reference value: 11.4%); assay type: functional
NCI-H1373 [21] = assay: Induction of apoptosis in human NCI-H1373 cells assessed as late apoptotic cells at 0.5 uM for 24 hrs by annexin V-PI staining based flow cytometric analysis (reference value: 16.2%); assay type: functional
NCI-H460 [22] = assay: Induction of apoptosis in human NCI-H460 cells assessed as early apoptotic cells at 0.5 uM for 24 hrs by annexin V-PI staining based flow cytometric analysis (reference value: 0.2%); assay type: functional
NCI-H1373 [23] = assay: Induction of apoptosis in human NCI-H1373 cells assessed as early apoptotic cells at 0.5 uM for 24 hrs by annexin V-PI staining based flow cytometric analysis (reference value: 0.6%); assay type: functional
DV-90 [24] = assay: Induction of apoptosis in human DV-90 cells assessed as viable cells at 2.5 uM for 24 hrs by annexin V-PI staining based flow cytometric analysis (reference value: 81.5%); assay type: functional; settings: read-out: Activity
DV-90 [25] = assay: Induction of cell cycle arrest in human DV-90 cells assessed as accumulation of cells at G2/M phase at 0.1 uM for 24 hrs by Click-iT EdU Alexa Fluor 647 flow cytometric assay kit analysis (reference value: 24%); assay type: functional
NCI-H1373 [26] = assay: Induction of TRAIL dependent apoptosis in human NCI-H1373 cells assessed as early apoptotic cells at 1 uM in presence of […] by annexin V-PI staining based flow cytometric analysis (reference value: 0.5%); assay type: functional
NCI-H358 = assay: Antiproliferative activity against human NCI-H358 cells at 500 to 2500 nM in presence of TNF by cell titre glo assay; assay type: functional, cell-based; settings: dose 500-2500 nM
DV-90 [27] = assay: Induction of cell cycle arrest in human DV-90 cells assessed as accumulation of cells at G2/M phase at 1 uM for 24 hrs by Click-iT EdU Alexa Fluor 647 flow cytometric assay kit analysis (reference value: 24%); assay type: functional
A549 [28] = assay: Induction of apoptosis in human A549 cells assessed as late apoptotic cells at 1 uM in presenc of cisplatin by annexin V-PI based flow cytometric analysis (reference value: 2.5%); assay type: functional
NCI-H23 = assay: Downregulation of c-MYC mRNA expression level in human NCI-H23 cells at 0.1 to 1 uM for 24 hrs by qRT-PCR analysis; assay type: functional, cell-based; settings: dose 0.1-1 µM

In the case of `Cc1sc2c(c1C)C(c1ccc(Cl)cc1)=N[C@@H](CC(=O)Nc1ccc(O)cc1)c1nnc(C)n1-2` [BIRABRESIB], the Activity (DV-90 [1]) is reported as 33.7%, the Activity (A549 [2]) is reported as 0.1% and the Activity (A549 [3]) is reported as 0.1%. It also gave an Activity (NCI-H460 [4]) of 5.1%.
Compound `CCNC(=O)C[C@@H]1N=C(c2ccc(Cl)cc2)c2cc(OC)ccc2-n2c(C)nnc21` [MOLIBRESIB] has an Activity (DV-90 [5]) of 50%, an Activity (DV-90 [6]) of 25% and an Activity (DV-90 [7]) of 49%. The Activity (NCI-H1373 [8]) was 65% and the Activity (NCI-H1373 [9]) was 47%.
For `Cc1sc2c(c1C)C(c1ccc(Cl)cc1)=N[C@@H](CC(=O)OC(C)(C)C)c1nnc(C)n1-2`, the Activity (NCI-H1792) was “Active”, the Activity (SK-LU-1) was “Active” and the Activity (NCI-H441) was “Active”. The Activity (A549 [10]) was 3%, the T/C (A549 [11]) was 79% and the Activity (NCI-H1373 [12]) was 2.9%. For the same compound, the Activity (NCI-H1373 [13]) was 2.4%, the viability at 2.5 µM (NCI-H460 [14]) was 90.4% and the Activity [15] was 5%. For the same compound, the Activity (NCI-H1373 [16]) was “Active”, the Activity (A549 [17]) was 0.6% and the Activity (DV-90 [18]) was 1.9%. For the same compound, the Activity (NCI-H1373 [19]) was “Active”, the Activity (DV-90 [20]) was 16% and the Activity (NCI-H1373 [21]) was 20.2%. It also gave an Activity (NCI-H460 [22]) of 0.2%, an Activity (NCI-H1373 [23]) of 2.5% and a viability at 2.5 µM (DV-90 [24]) of 50.7%. The Activity (DV-90 [25]) was 31%, the Activity (NCI-H1373 [26]) was 6.1% and the Activity (NCI-H358) was “Active”. The Activity (DV-90 [27]) was 27%, the Activity (A549 [28]) was 28.5% and the Activity (NCI-H23) was “Active”.
